Source: article PMC7387440, “EGCG impedes human Tau aggregation and interacts with Tau” (Scientific Reports, 2020)

Molecular target: T1, full-length Tau (human Tau40wt) (Homo sapiens, UniProt P10636)
T1 construct: gene MAPT; full-length recombinant Tau (Tau40wt, 441 residues)
Assay: isothermal titration calorimetry ([…] Tau titrated with […] EGCG)
Format: binding

T1 sequence (P10636 1-441 isoform P10636-8): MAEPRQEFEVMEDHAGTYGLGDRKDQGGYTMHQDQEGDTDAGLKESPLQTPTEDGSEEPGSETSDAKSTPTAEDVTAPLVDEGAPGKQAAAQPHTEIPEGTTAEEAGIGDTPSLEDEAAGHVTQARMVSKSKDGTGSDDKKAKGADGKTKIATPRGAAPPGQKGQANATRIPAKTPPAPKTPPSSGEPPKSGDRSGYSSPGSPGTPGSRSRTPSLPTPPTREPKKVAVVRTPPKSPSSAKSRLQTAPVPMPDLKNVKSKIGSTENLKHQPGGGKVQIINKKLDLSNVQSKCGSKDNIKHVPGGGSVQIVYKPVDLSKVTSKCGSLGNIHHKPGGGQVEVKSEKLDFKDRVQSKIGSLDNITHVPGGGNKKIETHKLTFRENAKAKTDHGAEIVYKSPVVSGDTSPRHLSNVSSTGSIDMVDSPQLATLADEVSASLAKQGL

Compound `O=C(O[C@@H]1Cc2c(O)cc(O)cc2O[C@@H]1c1cc(O)c(O)c(O)c1)c1cc(O)c(O)c(O)c1` [EGCG] has a Kd of 74 nM.
